34 compounds from patent US20250276979A1, “SARS-COV2 MAIN PROTEASE INHIBITORS” (Gilead Sciences, Inc., priority 2024, published 2025) can be followed below.

Structures are written as SMILES. Like-named read-outs stand apart in the source and are kept apart here.

For the assay, the system named is SARS-CoV-2-NLuc in A549-hACE2 cells. The assay can be described thus: microbe, parasite or virus in culture. The format is cell-based.
The mark [1] stands for this setting: Severe acute respiratory syndrome coronavirus 2, 48 h; read-out: MPro EC50.
[2] abbreviates: Severe acute respiratory syndrome coronavirus 2, 48 h, read-out: MPro EC50.

One may read the EC50 as the midpoint of the concentration-response curve. As for `COc1ccc(Cl)c(-c2cc3[nH]c(=O)n(C4CCCNC(=O)C4)c(=O)c3s2)c1` (stereo not shown) [Example 20, 6-(2-chloro-5-methoxyphenyl)-3-(2-oxoazepan-4-yl)thieno[3,2-d]pyrimidine-2,4(1H,3H)-dione], the EC50 under setting [1] is 56.4 nM.
The same measure, in the same setting: the same measure for `COc1cc(-c2cc3c(s2)c(=O)n([C@@H]2CCCNC(=O)C2)c(=O)n3CCOC(F)(F)F)c(Cl)cc1F` [Example 38, (R)-6-(2-chloro-4-fluoro-5-methoxyphenyl)-3-(2-oxoazepan-4-yl)-1-(2-(trifluoromethoxy)ethyl)thieno[3,2-d]pyrimidine-2,4(1H,3H)-dione]: 208 nM.
On the same count and under the same terms, the same measure for `O=C1C[C@H](n2c(=O)[nH]c3cc(-c4ccccc4Cl)ccc3c2=O)CCN1` [Example 6, (R)-7-(2-chlorophenyl)-3-(2-oxopiperidin-4-yl)quinazoline-2,4(1H,3H)-dione]: 29900 nM.
The same measure, in the same setting: the same measure for `COc1ccc(Cl)c(-c2cc3c(s2)c(=O)n([C@@H]2CCCNC(=O)C2)c(=O)n3CCC#N)c1` [Example 29, (R)-3-(6-(2-chloro-5-methoxyphenyl)-2,4-dioxo-3-(2-oxoazepan-4-yl)-3,4-dihydrothieno[3,2-d]pyrimidin-1(2H)-yl)propanenitrile]: less than 5.64 nM.
`COc1cc(-c2cc3c(s2)c(=O)n([C@@H]2CCCNC(=O)C2)c(=O)n3C)c(Cl)cc1F` [Example 32, (R)-6-(2-chloro-4-fluoro-5-methoxyphenyl)-1-methyl-3-(2-oxoazepan-4-yl)thieno[3,2-d]pyrimidine-2,4(1H,3H)-dione]: the half-maximal effective concentration (EC50) under setting [1] came to 15.6 nM.
Same read-out and setting: the same measure for `COc1ccc(Cl)c(-c2cc3c(s2)c(=O)n([C@@H]2CCCNC(=O)C2)c(=O)n3CC#N)c1` [Example 28, (R)-2-(6-(2-chloro-5-methoxyphenyl)-2,4-dioxo-3-(2-oxoazepan-4-yl)-3,4-dihydrothieno[3,2-d]pyrimidin-1(2H)-yl)acetonitrile]: 5.87 nM.
On the same count and under the same terms, the same measure for `CNC(=O)CCn1c(=O)n([C@@H]2CCCNC(=O)C2)c(=O)c2sc(-c3cc(OC)c(F)cc3Cl)cc21` [Example 42, (R)-3-(6-(2-chloro-4-fluoro-5-methoxyphenyl)-2,4-dioxo-3-(2-oxoazepan-4-yl)-3,4-dihydrothieno[3,2-d]pyrimidin-1(2H)-yl)-N-methylpropanamide]: 242 nM; for `COc1cc(-c2cc3c(s2)c(=O)n([C@@H]2CCCNC(=O)C2)c(=O)n3CC2(C#N)CC2)c(Cl)cc1F` [Example 36, (R)-1-((6-(2-chloro-4-fluoro-5-methoxyphenyl)-2,4-dioxo-3-(2-oxoazepan-4-yl)-3,4-dihydrothieno[3,2-d]pyrimidin-1(2H)-yl)methyl)cyclopropane-1-carbonitrile]: less than 4.07 nM.
In the case of `COc1cc(-c2cc3[nH]c(=O)n(C4CCNC(=O)C4)c(=O)c3s2)c(Cl)cc1F` (stereo not shown) [Example 14, 6-(2-chloro-4-fluoro-5-methoxyphenyl)-3-(2-oxopiperidin-4-yl)thieno[3,2-d]pyrimidine-2,4(1H,3H)-dione], under setting [1], the EC50 is 318 nM.
On to `COc1cnc(Cl)c(-c2cc3[nH]c(=O)n([C@@H]4CCCNC(=O)C4)c(=O)c3s2)c1` [Example 44, (R)-6-(2-chloro-5-methoxypyridin-3-yl)-3-(2-oxoazepan-4-yl)thieno[3,2-d]pyrimidine-2,4(1H,3H)-dione], for which, under setting [1], the EC50 stood at 433 nM.
Still for that read-out and setting: in the case of `COc1cc(-c2cc3[nH]c(=O)n([C@@H]4CCCNC(=O)C4)c(=O)c3o2)c(Cl)cc1F` [Example 59, (R)-6-(2-chloro-4-fluoro-5-methoxyphenyl)-3-(2-oxoazepan-4-yl)furo[3,2-d]pyrimidine-2,4(1H,3H)-dione] it was 651 nM.
Still for that read-out and setting: in the case of `COc1cc(-c2cc3[nH]c(=O)n([C@@H]4CCCNC(=O)C4)c(=O)c3s2)c(C#N)cc1F` [Example 46, (R)-2-(2,4-dioxo-3-(2-oxoazepan-4-yl)-1,2,3,4-tetrahydrothieno[3,2-d]pyrimidin-6-yl)-5-fluoro-4-methoxybenzonitrile] it was 771 nM; in that of `Cc1noc(C)c1-c1cc2[nH]c(=O)n([C@H]3CCNC(=O)C3)c(=O)c2s1` [Example 19, (S)-6-(3,5-dimethylisoxazol-4-yl)-3-(2-oxopiperidin-4-yl)thieno[3,2-d]pyrimidine-2,4(1H,3H)-dione], 35800 nM.
The same measure, in the same setting: in the case of `COc1cc(-c2cc3c(s2)c(=O)n([C@@H]2CCCNC(=O)C2)c(=O)n3CC(F)F)c(Cl)cc1F` [Example 43, (R)-6-(2-chloro-4-fluoro-5-methoxyphenyl)-1-(2,2-difluoroethyl)-3-(2-oxoazepan-4-yl)thieno[3,2-d]pyrimidine-2,4(1H,3H)-dione] it was 34.4 nM.
Regarding `O=C1C[C@@H](n2c(=O)[nH]c3cc(-c4ccccc4Cl)sc3c2=O)CN1` [Example 3, 6-(2-chlorophenyl)-3-[(3R)-5-oxopyrrolidin-3-yl]-1H-thieno[3,2-d]pyrimidine-2,4-dione], the 50% effective concentration (EC50) under setting [1] worked out at 6830 nM.
On the same count and under the same terms, the same measure for `O=C1CC(n2c(=O)[nH]c3cc(-c4ccccc4Cl)sc3c2=O)CCN1` (stereo not shown) [Example 1, 6-(2-chlorophenyl)-3-(2-oxopiperidin-4-yl)thieno[3,2-d]pyrimidine-2,4(1H,311)-dione]: 255 nM; for `COc1cc(Cl)c(-c2cc3[nH]c(=O)n([C@H]4CCNC(=O)C4)c(=O)c3s2)cc1OC` [Example 18, (S)-6-(2-chloro-4,5-dimethoxyphenyl)-3-(2-oxopiperidin-4-yl)thieno[3,2-d]pyrimidine-2,4(1H,3H)-dione]: 1150 nM.
The same measure, in the same setting: in the case of `COc1cc(-c2cc3c(s2)c(=O)n([C@@H]2CCCNC(=O)C2)c(=O)n3CCN2CCCC2=O)c(Cl)cc1F` [Example 39, (R)-6-(2-chloro-4-fluoro-5-methoxyphenyl)-3-(2-oxoazepan-4-yl)-1-(2-(2-oxopyrrolidin-1-yl)ethyl)thieno[3,2-d]pyrimidine-2,4(1H,3H)-dione] it was 148 nM.
Same read-out and setting: in the case of `COc1cc(-c2cc3[nH]c(=O)n([C@H]4CCNC(=O)C4)c(=O)c3s2)c(Cl)cc1F` [Example 16, (S)-6-(2-chloro-4-fluoro-5-methoxyphenyl)-3-(2-oxopiperidin-4-yl)thieno[3,2-d]pyrimidine-2,4(1H,3H)-dione] it was 222 nM.
As for `COc1ccc(Cl)c(-c2cc3[nH]c(=O)n([C@@H]4CCCNC(=O)C4)c(=O)c3s2)c1` (single isomer, unassigned) [Example 23], the EC50 under setting [2] is 12.7 nM.
Same read-out and setting: in the case of `O=C1C[C@@H](n2c(=O)[nH]c3cc(-c4ccccc4Cl)sc3c2=O)CCCN1` (single isomer, unassigned) [Example 22] it was 155 nM.
On the same count and under the same terms, in the case of `COc1ccc(Cl)c(-c2cc3[nH]c(=O)n([C@H]4CCCNC(=O)C4)c(=O)c3s2)c1` (single isomer, unassigned) [Example 24] it was 142 nM.
As for `COc1cc(-c2cc3c(s2)c(=O)n([C@@H]2CCCNC(=O)C2)c(=O)n3CCC#N)c(Cl)cc1F` [Example 48, (R)-3-(6-(2-chloro-4-fluoro-5-methoxyphenyl)-2,4-dioxo-3-(2-oxoazepan-4-yl)-3,4-dihydrothieno[3,2-d]pyrimidin-1(2H)-yl)propanenitrile], the EC50 under setting [1] worked out at 16.4 nM.
On to `O=C1C[C@H](n2c(=O)[nH]c3cc(-c4ccccc4Cl)sc3c2=O)CCN1` [Example 4, (R)-6-(2-chlorophenyl)-3-(2-oxopiperidin-4-yl)thieno[3,2-d]pyrimidine-2,4(1H,3H)-dione], for which the EC50 under setting [1] was determined as 978 nM.
Same read-out and setting: in the case of `COc1cc(-c2cc3[nH]c(=O)n([C@@H]4CCCNC(=O)C4)c(=O)c3s2)c(Cl)cc1Cl` [Example 47, (R)-6-(2,4-dichloro-5-methoxyphenyl)-3-(2-oxoazepan-4-yl)thieno[3,2-d]pyrimidine-2,4(1H,3H)-dione] it was 27.7 nM.
With `O=C1C[C@H](n2c(=O)[nH]c3cc(-c4ccccc4Cl)sc3c2=O)CCCN1` (single isomer, unassigned) [Example 21], under setting [2], the EC50 came out at 22.3 nM.
Take `COc1cc(-c2cc3[nH]c(=O)n(C4CCCCNC(=O)C4)c(=O)c3s2)c(Cl)cc1F` (stereo not shown) [Example 58, 6-(2-chloro-4-fluoro-5-methoxyphenyl)-3-(2-oxoazocan-4-yl)thieno[3,2-d]pyrimidine-2,4(1H,3H)-dione]: the 50% effective concentration (EC50) under setting [1] was 723 nM.
Same read-out and setting: the same measure for `COc1cc(-c2cc3[nH]c(=O)n([C@@H]4CCCNC(=O)C4)c(=O)c3cc2OC)c(C#N)cc1F` [Example 56, (R)-5-fluoro-4-methoxy-2-(6-methoxy-2,4-dioxo-3-(2-oxoazepan-4-yl)-1,2,3,4-tetrahydroquinazolin-7-yl)benzonitrile]: 795 nM; for `COc1cc(-c2cc3[nH]c(=O)n([C@H]4CNC(=O)C4)c(=O)c3o2)c(Cl)cc1F` [Example 57, 6-(2-chloro-4-fluoro-5-methoxy-phenyl)-3-[(3R)-5-oxopyrrolidin-3-yl]-1H-furo[3,2-d]pyrimidine-2,4-dione]: greater than 1000 nM; for `O=C1C[C@H](n2c(=O)[nH]c3cc(-c4ccccc4Cl)sc3c2=O)CN1` [Example 2, 6-(2-chlorophenyl)-3-[(3S)-5-oxopyrrolidin-3-yl]-1H-thieno[3,2-d]pyrimidine-2,4-dione]: 35500 nM.
Still for that read-out and setting: in the case of `COc1ccc(Cl)c(-c2cc3[nH]c(=O)n(C4CCNC(=O)C4)c(=O)c3s2)c1` (stereo not shown) [Example 7, 6-(2-chloro-5-methoxy-phenyl)-3-(2-oxo-4-piperidyl)-1H-thieno[3,2-d]pyrimidine-2,4-dione] it was 77.1 nM; in that of `COc1cc(-c2cc3c(s2)c(=O)n([C@@H]2CCCNC(=O)C2)c(=O)n3CCC#N)c(C#N)cc1F` [Example 49, (R)-2-(1-(2-cyanoethyl)-2,4-dioxo-3-(2-oxoazepan-4-yl)-1,2,3,4-tetrahydrothieno[3,2-d]pyrimidin-6-yl)-5-fluoro-4-methoxybenzonitrile], greater than 1000 nM; in that of `COc1cc(-c2cc3c(s2)c(=O)n([C@@H]2CCCNC(=O)C2)c(=O)n3CCNC(C)=O)c(Cl)cc1F` [Example 37, (R)—N-(2-(6-(2-chloro-4-fluoro-5-methoxyphenyl)-2,4-dioxo-3-(2-oxoazepan-4-yl)-3,4-dihydrothieno[3,2-d]pyrimidin-1(2H)-yl)ethyl)acetamide], 170 nM.
Same read-out and setting: in the case of `COc1ccc(Cl)c(-c2cc3[nH]c(=O)n([C@H]4CCNC(=O)C4)c(=O)c3s2)c1` [Example 17, (S)-6-(2-chloro-5-methoxyphenyl)-3-(2-oxopiperidin-4-yl)thieno[3,2-d]pyrimidine-2,4(1H,3H)-dione] it was 84.6 nM.
